{
  "source": "patent US20260275412A1",
  "about": "“A GENE SIGNATURE FOR DIAGNOSING STIMULATOR OF INTERFERON GENES (STING)-ASSOCIATED VASCULOPATHY WITH ONSET IN INFANCY (SAVI)” (INSTITUT NATIONAL DE LA SANTÉ ET DE LA RECHERCHE MÉDICALE, priority 2023, published 2026)",
  "key": {"[1]": {"tested_on": "STING", "experiment": "in vitro model of STING activation: PBMCs with ADUS100 with or without JAK-inhibitor, scRNA-seq", "assay_type": "cell-based, human", "settings": "4 hours", "text": "Sequencing reads were demultiplexed and aligned to the human reference genome (hg38), and counted using the CellRanger Pipeline v6.0. Unfiltered RNA UMI counts were loaded into Seurat v4 for quality control, data integration and downstream analyses. Apoptotic cells and empty sequencing capsules were excluded by filtering out cells with low number of features (Filters were defined based on the batch: STING1: nFeature <300; STING2 and STING3<500; IFN-stim <750) or a mitochondrial content higher than 20%. Data from each sample were normalized using sctransform, before batch correction using Seurat's FindIntegratedAnchors, on the 3,000 most variable features. For the IFN-β dataset, for computational efficiency, integration anchors were determined with a canonical correlation analysis, using all unstimulated samples as reference. For the SAVI dataset, to avoid over-aligning samples, a reciprocal principal component analysis (PCA) was used to find integration anchors. On the resulting integrated datasets, we computed the PCA on the 3000 most variable genes, before computing a UMAP (on 20 PCs for SAVI and 30 PCs for IFN-stimulation). Community detection was performed using the graph-based modularity-optimization Louvain algorithm from Seurat's FindClusters function with a 1.2 resolution. Cell types labels were assigned to resulting clusters based on a manually curated list of marker genes as well as previously defined signatures of the PBMC subtypes.^58 Despite filtering for high quality cells, 11/34 clusters in the SAVI dataset and 7/36 in the IFN-β dataset stood out as poor quality clusters and were removed from further analysis. They represented low UMI cells, dying cells, cycling cells, doublets, or contaminants (progenitor cells, basophils, platelets or megakaryocytes). […] Transcriptomic signatures scores were calculated using Seurat's AddModuleScore function. […]\nHuman PBMC samples were obtained from Promocell (C-12907 promocell, lot 434Z036). […] Libraries were sequenced on a Novaseq (Illumina), with 26 cycles of read 1, 8 cycles of i7 index and 98 cycles of read 2. […]"}, "[2]": {"tested_on": "T cell", "settings": "cited from earlier work"}, "[3]": {"tested_on": "SAVI patients", "settings": "SAVI patients treated with JAK-inhibitors; cited from earlier work"}, "[4]": {"settings": "PBMCs from a healthy donor, ADUS100 3 mM, vs unstimulated"}},
  "data": [
    {"smiles": "Nc1ncnc2c1ncn2[C@@H]1O[C@@H]2COP(=O)([S-])O[C@@H]3[C@H](O)[C@@H](COP([O-])(=S)O[C@H]2[C@H]1O)O[C@H]3n1cnc2c(N)ncnc21.[Na+].[Na+]", "note": "(some centres unmarked) [ADUS100]", "values": [
      {"measurement": "score of NF-κB activation", "setting": "[1]; [4]", "value": "increased"},
      {"measurement": "score of type I IFN response", "setting": "[1]; [4]", "value": "increased"},
      {"measurement": "STING-associated signature (21 genes)", "setting": "[1]; monocytes and DCs of stimulated PBMCs", "value": "strong increase"}
    ]},
    {"smiles": "C[C@@H]1CCN(C(=O)CC#N)C[C@@H]1N(C)c1ncnc2[nH]ccc12", "note": "[Tofacitinib, tofacitinib]", "values": [
      {"measurement": "T cell proliferation", "setting": "[2]", "value": "inhibit T cell proliferation"},
      {"measurement": "symptoms of SAVI patients", "setting": "[3]", "value": "partial improvements of the symptoms"}
    ]}
  ]
}
